Assay results from patent US20220331274A1, “METHODS OF TREATING CANCER” (Inspirna, Inc., priority 2019, published 2022).

Columns and labels:
[1] = cited from earlier work
[2] = cited from earlier work; remark: listed apart in the source
[3] = system: mouse melanoma; test: syngeneic mouse melanoma model; type: in vivo
[4] = system: BRAF wild-type human melanoma xenograft; test: BRAF wild-type human melanoma xenograft model; type: in vivo; details: 100 mg/kg in combination with dacarbazine
[5] = system: Xenograft A549; test: Example 2: Xenograft A549 mice, tumor volume; type: in vivo; details: Group 02: 2 mg/kg cisplatin, corn oil
Method: Protocol: Five groups of Xenograft A549 mice were treated and tumor volume tracked for twenty-two days. Group 01 was administered 0.9% Saline, 0 mg/kg cisplatin, Corn Oil, and 0 mg/kg 2-[3-[(3R)-3-[[2-chloro-3-(trifluoromethyl)phenyl]methyl-(2,2-diphenylethyl)amino]butoxy]phenyl]acetic acid; Group 02 was administered 2 mg/kg Cisplatin, Corn Oil, and 0 mg/kg 2-[3-[(3R)-3-[[2-chloro-3-(trifluoromethyl)phenyl]methyl-(2,2-diphenylethyl)amino]butoxy]phenyl]acetic acid; Group 03 was administered 0.9% Saline, 0 mg/kg cisplatin, and 50 mg/kg 2-[3-[(3R)-3-[[2-chloro-3-(trifluoromethyl)phenyl]methyl-(2,2-diphenylethyl)amino]butoxy]phenyl]acetic acid; Group 04 was administered 2 mg/kg cisplatin and 50 mg/kg 2-[3-[(3R)-3-[[2-chloro-3-(trifluoromethyl)phenyl]methyl-(2,2-diphenylethyl)amino]butoxy]phenyl]acetic acid twice per day daily for the entire treatment period; and Group 05 was administered 2 mg/kg cisplatin and 50 mg/kg 2-[3-[(3R)-3-[[2-chloro-3-(trifluoromethyl)phenyl]methyl-(2,2-diphenylethyl)amino]butoxy]phenyl]acetic acid twice per day for five continuous days followed by two days without for the entire treatment period.

[6] = cited from earlier work; remark: listed apart in the source

## N.N.O=C([O-])C1(C(=O)[O-])CCC1.[Pt+2] [Carboplatin, platinum, diammine[1,1-cyclobutanedicarboxylato(2-)-O,O′]-, (SP-4-2)]
[1]; ethanol, acetone, dimethylacetamide
  solubility in ethanol, acetone, and dimethylacetamide: virtually insoluble
[1]; water
  solubility in water: approximately 14 mg/mL
[2]
  pH of a 1% solution: 5-7

## Cl.O=C(O)Cc1cccc(OCCCN(Cc2cccc(C(F)(F)F)c2Cl)CC(c2ccccc2)c2ccccc2)c1 [GW3965, 3-[3-[N-(2-Chloro-3-trifluoromethylbenzyl)-(2,2-diphenylethyl)amino]propyloxy]phenylacetic acid hydrochloride, reference compound]
[3]; 100 mg/kg in combination with anti-CTLA-4
  tumor suppressive efficacy: additive tumor suppressive efficacy
[3]; 100 mg/kg in combination with dacarbazine, syngeneic melanoma animal model
  anti-tumor efficacy: Additive anti-tumor efficacy
[4]
  anti-tumor efficacy: Additive anti-tumor efficacy

## N.N.[Cl][Pt][Cl] [cisplatin, reference compound]
[5]; day 0, in mm³ (unit assumed)
  mean tumor volume: 86.05
[5]; day 3
  mean tumor volume: 116.20
[5]; day 6
  mean tumor volume: 196.48
[5]; day 9, in mm³ (unit assumed)
  mean tumor volume: 276.41
[5]; day 12, in mm³ (unit assumed)
  mean tumor volume: 450.58
[5]; day 15, in mm³ (unit assumed)
  mean tumor volume: 598.84
[5]; day 19
  mean tumor volume: 1239.53
[5]; day 22
  mean tumor volume: 1521.86

## CC(=O)O[C@@]12CO[C@@H]1C[C@H](O)[C@@]1(C)C(=O)[C@H](O)C3=C(C)[C@@H](OC(=O)[C@H](O)[C@@H](NC(=O)OC(C)(C)C)c4ccccc4)C[C@@](O)([C@@H](OC(=O)c4ccccc4)[C@H]21)C3(C)C [docetaxel, (2R,3S)—N-carboxy-3-phenylisoserine,N-tert-butyl ester, 13-ester with 5b-20-epoxy-1,2a,4,7b, 10b, 13a-hexahydroxytax-11-en-9-one 4-acetate 2-benzoate, trihydrate]
[6]; treatment with the partner drug
  hepatotoxicity: hepatotoxicity has been observed

## ipilimumab: recombinant human IgG1 kappa monoclonal antibody that binds to CTLA-4
[6]; in vivo
  immune-mediated hepatitis: immune-mediated hepatitis has been observed

## nivolumab: fully human immunoglobulin (Ig) G4 monoclonal antibody directed against programmed death-1 (PD-1)
[6]; in vivo
  hyperlipidemia in treated subjects: has also been reported
  immune-mediated hepatitis: immune-mediated hepatitis has been observed
